Consider two compounds from ChEMBL document CHEMBL1159275, “Mycalolides D and E, new cytotoxic macrolides from a collection of the stony coral Tubastrea faulkneri” (1995).

A short description of this assay: Cytotoxicity against human NCI60 cells. The assay is classed as functional. Conditions: read-out: LC50 (the source's name).

Structures are written as SMILES.

In the case of `COCC(OC)C(=O)OC(CCC(C)C(CC1OC(=O)CC(O)C/C=C/C(=O)CC(C)C(=O)NC(=O)c2coc(n2)-c2coc(n2)/C=C/CC(OC)C1C)OC)C(C)C(OC(C)=O)C(C)/C=C/N(C)C=O` (configuration not stated) [MYCALOLIDE D], the CC50 amounted to 600 nM.
With `CO[C@H]1C/C=C/c2nc(co2)-c2nc(co2)-c2nc(co2)[C@@H](OC)[C@@H](C)C(=O)/C=C/C[C@H](O)CC(=O)O[C@@H](C[C@H](OC)[C@@H](C)CC[C@@H](OC(=O)[C@@H](C)OC)[C@H](C)[C@H](OC(C)=O)[C@H](C)/C=C/N(C)C=O)[C@@H]1C` [MYCALOLIDE C] the figure was 2500 nM.
